Measured values taken from patent US10232023B2, “Methods for treatment of and prophylaxis against inflammatory disorders” (THE UNIVERSITY OF UTAH RESEARCH FOUNDATION, priority 2013, dated 2019).
Entries after “also recorded” stand apart in the source; their conditions may differ.

How the values were obtained:
Mature ewe PMNs = experiment: NET formation by sheep PMNs; format: cell-based
Excerpt: Referring to FIGS. 13A and 13B, PMNs from preterm lamb cord blood and from mature ewes were isolated.

[1] = system: PMA-stimulated adult PMNs; experiment: NET formation by PMA-stimulated adult human PMNs; format: cell-based; conditions: pre-incubation 1 nM, 1 hour; PMA 20 nM
Method: NET formation by PMA-stimulated adult PMNs with or without CRISPP pre-incubation was assessed.
(§1) Human PMNs isolated from healthy adult donors were stimulated with LPS (100 ng/mL) or phorbal-12-mystirate (PMA; 20 nM), ±nNIF (1 nM) or CRISPP (1 nM), pre-incubation (1 hour). Scrambled control peptide (SCR) generated using the identical amino acid content as CRISPP but linked in a random order was used as a control. NET formation was assessed 2 hours after stimulation.
(§2) Briefly, primary PMNs isolated from preterm infants, healthy term infants, and healthy adults (2×10^6 cells/mL) were incubated with control buffer or stimulated with LPS (100 ng/mL), PMA (20 nM), or S. aureus bacteria (MOI 100) for 1 hour at 37° C. in 5% CO2/95% air on glass coverslips coated with poly-L-lysine. For selected experiments, primary PMNs were pre-incubated with autologous plasma, cord blood plasma, nNIF (1 nM), CRISPP (1 nM), or SCR (1 nM) for 1 hour prior to imaging. After pre-incubation and/or stimulation, PMNs were gently washed with PBS and incubated with a mixture of cell permeable (SYTO Green, MOLECULAR PROBES) and impermeable (SYTOX Orange, MOLECULAR PROBES) DNA fluorescent dyes. Confocal microscopy was accomplished using a FV300 1×81 Microscope and FLUOVIEW software (OLYMPUS). Both 20× and 60× objectives were used. Z-series images were obtained at a step size 1 μm over a range of 20 μm for each field. OLYMPUS FLUOVIEW and ADOBE PHOTOSHOP CS2 software were used for image processing.
(§3) Supernatant total histone H3 content was determined as previously referenced in McInturff et al., Blood, 2012, 120: 3118-3125. After live cell imaging of control and stimulated primary PMNs (2×10^6/mL; various agonists), the cells were incubated with PBS containing DNase (40 U/mL) for 15 minutes at room temperature to break down and release NETs formed in response to stimulation. The supernatant was gently removed and centrifuged at 420×g for 5 minutes. The cell-free supernatant was then mixed 1:3 with 4× Laemmli buffer prior to western blotting. A polyclonal primary antibody against human histone H3 protein (CELL SIGNALING TECHNOLOGY) and infrared secondary antibodies (LI-COR BIOSCIENCES) were used. Imaging and densitometry were performed on the ODYSSEY™ infrared imaging system (LI-COR BIOSCIENCES).

[2] = system: PMNs isolated from healthy adult donors; experiment: PMN chemotaxis, modified Boyden Chamber assay; format: cell-based, human; conditions: 1 nM, one hour pre-incubation; IL-8 2 ng/mL
Method: Chemotaxis by PMNs isolated from healthy adult donors was assessed using a modified Boyden Chamber assay±a one hour pre-incubation […] (1 nM), or SCR (1 nM). Recombinant human IL-8 (2 ng/mL) was used as the chemoattractant. Chemotaxis through a 5 micron filter was determined by counting PMNs in 10 randomly selected high-power fields as previously described in Hill et al., Lancet, 1974, 2: 617-619. In separate experiments, […], or SCR (all at 1 nM) were evaluated for chemoattractant activity using the same system.

human platelets = experiment: Platelet activation (P-selectin expression); format: cell-based; conditions: given alone or following thrombin stimulation (0.1 IU/mL)
Method: Using protocols modified from van Velzen, et al., Thromb Res, 2012, 130: 92-98, human platelets (1×10^8 cells/mL) were incubated with CRISPP or SCR (0.1-10 ng/ml) for 1 hour followed by stimulation with thrombin (0.1 IU/mL) or control M-199 media for 15 minutes. The cells were prepared for FACS analysis with the following primary, monoclonal antibodies for 20 minutes: PE-conjugated CD41a (platelet-specific marker) and FITC-conjugated CD62P (P-selectin). Isotype and fluorochrome matched control antibodies were used. After incubation at room temperature in the dark, the cells were lysed with FACS lysis buffer and analyzed by flow cytometry (BECTON-DICKINSON FACSCAN, CELLQUEST software).

LPS-stimulated PMNs = experiment: NET formation by LPS-stimulated adult human PMNs (live cell imaging, histone H3 release); format: cell-based; conditions: healthy adult PMNs; peptide/protein pre-incubation 1 hour (1 nM where stated); LPS 100 ng/mL
Method: PMNs from healthy adult donors and from 28 day old preterm infants were pre-incubated for one hour with thawed cord blood plasma from that particular preterm infant or with autologous plasma collected that day from either the preterm infant peripheral blood sample or the blood sample from the healthy adult. NET formation was then assessed in vitro following LPS-stimulation (100 ng/mL) for 2 hours.
as §1, §2, §3
To determine whether the 29 amino acid peptide identified in Example 5 were the substances circulating in umbilical cord blood responsible for the inhibition of NET formation, cord blood plasma was depleted of nNIF via affinity purification using the carboxy-terminus AAT antibody. nNIF was then eluted from the column and used in experiments to assess the NET-inhibitory activity of unaltered cord blood plasma, nNIF-depleted cord blood plasma, and affinity purified nNIF from cord blood plasma. As a control, recombinant AAT in nNIF-depleted cord blood was also assessed (see FIGS. 5A-5F).
Cord blood plasma depleted of both nNIF and full length AAT was collected as were the peptides captured by affinity purification for use in in vitro assays of NET formation. Full length, enzymatically active AAT (SIGMA) was also resuspended in elution buffer and tested in parallel.

[3] = system: outbred Swiss mice, intraperitoneal injection of E. coli; experiment: Survival after intraperitoneal E. coli; format: in vivo, mouse
Method: FIG. 10B is a graph tracking survival of outbred Swiss mice in various treatment arms following intraperitoneal injection of E. coli (4×10^7 bacteria). As in FIG. […] The same dose, delivery route, and schedule were followed for the scrambled peptide control mice. Here, 10 mice were assessed in each group: no treatment, E. coli plus CRISPP, and E. coli plus scrambled peptide.
Survival of outbred Swiss mice was tracked in various treatment arms following intraperitoneal injection of either LPS (20 mg/kg) or E. coli (4×10^7 bacteria), as shown in FIGS. 10A and 10B. […] The same dose, delivery route, and schedule were followed for the scrambled control peptide control mice. Six mice were assessed in both groups: LPS+CRISPP and LPS+scrambled control peptide. […] Ten mice were assessed in each group: no treatment, E. coli+CRISPP, and E. coli+scrambled control peptide. No antibiotics were given. No deaths occurred in the no treatment group. […] Referring to FIG. 11, CRISPP was also evaluated in a murine model of polymicrobial infection caused by cecal ligation and puncture (CL/P). CL/P was also performed without concomitant antibiotic treatment. Ten mice were assessed in each of the CL/P groups. […]
[…] Survival was assessed over 6 days at 6 hour to 12 hour intervals.

PMA-stimulated PMNs = experiment: Nuclear decondensation (nuclear area) assay; format: cell-based, human; conditions: CRISPP 1 nM, SCR 1 nM, Sivelestat 200 nM; PMA 20 nM, 2 hours; vs PMA alone
Method: Using techniques modified from Papayannopoulos et al., J Cell Biol, 2010, 191: 677-691, nuclear area assays were used for PMA-stimulated PMNs as a surrogate for NET formation. PMNs were stimulated with PMA (20 nM) for 2 hours and then visualized via live cell imaging with a cell permeable DNA dye. Images from 5 randomly selected high power fields were captured and the nuclear area of all PMNs on each visual field was quantitated using IMAGEJ software. Nuclear areas were compared for PMNs stimulated with PMA with PMNs pre-incubated with CRISPP (1 nM), SCR (1 nM), or the NE inhibitor Sivelestat (200 nM). […] Next, immunocytochemical experiments designed to see whether CRISPP is taken up by human PMNs were performed. The CRISPP-F and SCR-F peptides and FLAG-tag specific primary antibodies were used to assess cellular location. […] CRISPP can inhibit nuclear chromatin decondensation, which is consistent with the selective inhibition of NET formation by CRISPP and nNIF. This process may involve inhibition of NE activity.
PMNs were isolated and resuspended to 2×10^6 cells/mL in M-199 media. […] 5 randomly selected high power visual fields per sample were captured via confocal microscopy and analyzed for nuclear area using the cell-permeable, fluorescent DNA dye SYTO Green. The nuclear pixel areas of >100 individual cells per high power field were determined using IMAGE-J software (NIH).

Cancer-Associated SCM-Recognition, Immune Defense Suppression, and Serine Protease Protection Peptide [CRISPP, nNIF-related peptide (nNRP)]
NET formation by LPS-stimulated sheep PMNs (Mature ewe PMNs; mature ewe PMNs, pre-treatment 1 hour, LPS 100 ng/mL): inhibited NET formation in a dose-dependent manner
NET formation by PMA-stimulated sheep PMNs (Mature ewe PMNs; sheep PMNs, PMA): inhibited NET formation
NET formation by PMA-stimulated PMNs [1]: significantly inhibited NET formation
PMN chemotaxis [2]: did not significantly inhibit
Platelet p-selectin expression (human platelets): did not alter
NET formation by LPS-stimulated PMNs (LPS-stimulated PMNs): blocked NET formation by LPS-stimulated PMNs in a concentration dependent manner; also recorded: significantly inhibited NET formation
Survival, post-infection treatment ([3]; CRISPP-Post/E. coli vs SCR-Post/E. coli, peptide 4 hours after infection): approached statistical significance
Survival ([3]; E. coli 4×10^7 IP, 10 mcg/kg/dose IP, 1 hour prior and 6 hours after, vs E. coli+scrambled peptide, p<0.0001): statistically greater
Nuclear area of PMA-stimulated PMNs (PMA-stimulated PMNs): significant decrease in nuclear area
